Where two headings read alike, the source gives them in different places.
Experiments:
[1] = target: human EGFR (native sequence) (Homo sapiens, UniProt P00533); assay: Kinase inhibitory activity against human EGFR (native sequence); format: biochemical; conditions: 10 μM ATP, read-out: IC50 for kinase inhibition, EGFR
In short: (§1)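 Each assay used 10 μM ATP. Inhibitors were tested as 10-point curves, highest concentration 3 μM, no replicates.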

EGFR L858R = EGFR L858R (Homo sapiens, UniProt P00533, L858R); assay: Kinase inhibitory activity against EGFR bearing the L858R mutation; format: biochemical; conditions: 10 μM ATP, read-out: IC50 for kinase inhibition, EGFR L858R
In short: as §1

EGFR L858R/T790M = EGFR L858R/T790M (Homo sapiens, UniProt P00533, L858R/T790M); assay: Kinase inhibitory activity against EGFR bearing the L858R/T790M double mutation; format: biochemical; conditions: 10 μM ATP, read-out: IC50 for kinase inhibition, EGFR L858R T790M
In short: as §1

[2] = target: T1, BaF3 cells expressing the target EGFR mutations (Homo sapiens, UniProt P00533, T790M, cells depend on it, form not given); assay: Antiproliferative activity (MTT) against BaF3 cells expressing the target EGFR mutations; format: cell-based; conditions: BAF3 EGFR DEL T790M PURO POOL cells, read-out: IC50, BAF3 EGFR DEL T790M PURO POOL
T1 construct: IC50, BAF3 EGFR DEL T790M PURO POOL; other: BAF3 EGFR DEL T790M PURO POOL cells, MTT; other: BAF3 EGFR DEL T790M PURO POOL cells; MTT
In short: (§2)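 Antiproliferative effect was measured by MTT in BaF3 cells engineered to express mutant EGFR, with wildtype-EGFR BaF3 cells as the control line.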

[3] = target: T2, BaF3 cells expressing the target EGFR mutations (Homo sapiens, UniProt P00533, T790M/L858R, cells depend on it); assay: as above; format: cell-based; conditions: BAF3 EGFR L858R-T790M PURO POOL cells, read-out: IC50, BAF3 EGFR L858R-T790M PURO POOL
T2 construct: IC50, BAF3 EGFR L858R-T790M PURO POOL; other: BAF3 EGFR L858R-T790M PURO POOL cells, MTT; IC50, BAF3 EGFR L858R-T790M PURO POOL; other: BAF3 EGFR L858R-T790M PURO POOL cells; MTT
In short: as §2

[4] = tested on: BaF3 cells expressing wildtype EGFR; assay: Antiproliferative activity (MTT) against control BaF3 cells expressing wildtype EGFR; format: cell-based; conditions: Mus musculus
In short: as §2

[5] = EGFR L858R/T790M double mutation
[6] = 10 pt curves, 3 μM top concentration

Sequence of EGFR L858R (P00533 25-1210 L858R): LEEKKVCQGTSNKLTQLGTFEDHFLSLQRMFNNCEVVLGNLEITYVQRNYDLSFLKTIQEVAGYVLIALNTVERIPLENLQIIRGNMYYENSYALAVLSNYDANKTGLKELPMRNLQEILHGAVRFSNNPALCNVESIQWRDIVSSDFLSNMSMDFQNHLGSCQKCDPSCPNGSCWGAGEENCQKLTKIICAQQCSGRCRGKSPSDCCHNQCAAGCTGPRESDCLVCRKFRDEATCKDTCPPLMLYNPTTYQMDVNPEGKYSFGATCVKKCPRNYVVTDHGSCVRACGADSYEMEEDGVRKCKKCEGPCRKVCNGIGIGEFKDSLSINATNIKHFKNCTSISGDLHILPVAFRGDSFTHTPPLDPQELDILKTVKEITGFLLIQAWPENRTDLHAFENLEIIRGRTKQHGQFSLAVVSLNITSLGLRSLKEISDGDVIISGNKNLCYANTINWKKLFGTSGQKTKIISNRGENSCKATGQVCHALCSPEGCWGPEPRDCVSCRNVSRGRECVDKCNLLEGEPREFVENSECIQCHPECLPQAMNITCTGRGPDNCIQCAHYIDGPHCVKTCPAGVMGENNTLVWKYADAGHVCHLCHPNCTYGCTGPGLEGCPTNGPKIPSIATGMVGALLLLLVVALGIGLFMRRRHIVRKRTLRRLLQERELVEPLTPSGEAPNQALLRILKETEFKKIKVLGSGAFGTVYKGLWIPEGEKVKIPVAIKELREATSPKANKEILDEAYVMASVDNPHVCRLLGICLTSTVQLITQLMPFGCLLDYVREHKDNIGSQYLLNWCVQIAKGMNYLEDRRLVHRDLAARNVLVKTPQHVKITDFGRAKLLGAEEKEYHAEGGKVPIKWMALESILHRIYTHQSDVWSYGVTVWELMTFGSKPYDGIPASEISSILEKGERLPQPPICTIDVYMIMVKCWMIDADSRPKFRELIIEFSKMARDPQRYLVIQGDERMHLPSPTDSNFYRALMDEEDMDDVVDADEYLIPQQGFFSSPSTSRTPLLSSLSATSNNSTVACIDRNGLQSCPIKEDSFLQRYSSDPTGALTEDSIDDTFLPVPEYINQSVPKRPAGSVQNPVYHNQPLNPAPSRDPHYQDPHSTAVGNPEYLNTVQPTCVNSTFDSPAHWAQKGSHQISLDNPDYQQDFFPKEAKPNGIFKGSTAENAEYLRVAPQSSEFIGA
T1 sequence (P00533 with tags, fused parts or gaps DEL746-750/T790M, form open): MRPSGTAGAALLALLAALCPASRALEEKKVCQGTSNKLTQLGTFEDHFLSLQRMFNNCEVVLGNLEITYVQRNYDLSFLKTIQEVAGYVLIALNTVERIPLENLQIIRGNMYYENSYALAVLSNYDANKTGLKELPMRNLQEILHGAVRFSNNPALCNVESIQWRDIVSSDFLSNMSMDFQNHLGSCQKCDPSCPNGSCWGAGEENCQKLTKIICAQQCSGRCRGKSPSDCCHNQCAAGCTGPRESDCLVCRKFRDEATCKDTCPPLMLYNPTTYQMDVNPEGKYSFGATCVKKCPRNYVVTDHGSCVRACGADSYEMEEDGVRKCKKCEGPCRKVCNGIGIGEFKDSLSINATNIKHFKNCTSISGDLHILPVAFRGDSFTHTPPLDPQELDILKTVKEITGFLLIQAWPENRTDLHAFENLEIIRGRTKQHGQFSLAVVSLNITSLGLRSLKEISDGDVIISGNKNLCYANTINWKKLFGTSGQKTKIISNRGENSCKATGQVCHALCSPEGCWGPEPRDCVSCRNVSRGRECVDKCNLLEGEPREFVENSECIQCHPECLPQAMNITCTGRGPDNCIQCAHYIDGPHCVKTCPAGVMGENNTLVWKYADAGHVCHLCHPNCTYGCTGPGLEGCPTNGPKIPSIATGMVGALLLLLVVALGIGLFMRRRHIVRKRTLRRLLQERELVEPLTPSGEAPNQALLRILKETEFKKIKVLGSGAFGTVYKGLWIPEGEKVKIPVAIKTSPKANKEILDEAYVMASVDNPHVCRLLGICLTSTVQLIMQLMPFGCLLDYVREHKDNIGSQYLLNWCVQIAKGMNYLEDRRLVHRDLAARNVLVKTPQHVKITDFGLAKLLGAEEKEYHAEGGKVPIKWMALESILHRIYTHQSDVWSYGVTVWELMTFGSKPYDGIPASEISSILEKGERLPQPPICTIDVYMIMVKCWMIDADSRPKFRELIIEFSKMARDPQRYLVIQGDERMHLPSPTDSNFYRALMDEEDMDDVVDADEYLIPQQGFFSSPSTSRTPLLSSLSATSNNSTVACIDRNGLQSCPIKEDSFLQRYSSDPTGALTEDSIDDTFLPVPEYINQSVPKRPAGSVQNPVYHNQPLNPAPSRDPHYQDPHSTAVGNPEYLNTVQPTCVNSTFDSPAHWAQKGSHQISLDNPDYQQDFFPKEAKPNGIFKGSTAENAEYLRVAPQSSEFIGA
Sequence of human EGFR (native sequence) (P00533 25-1210): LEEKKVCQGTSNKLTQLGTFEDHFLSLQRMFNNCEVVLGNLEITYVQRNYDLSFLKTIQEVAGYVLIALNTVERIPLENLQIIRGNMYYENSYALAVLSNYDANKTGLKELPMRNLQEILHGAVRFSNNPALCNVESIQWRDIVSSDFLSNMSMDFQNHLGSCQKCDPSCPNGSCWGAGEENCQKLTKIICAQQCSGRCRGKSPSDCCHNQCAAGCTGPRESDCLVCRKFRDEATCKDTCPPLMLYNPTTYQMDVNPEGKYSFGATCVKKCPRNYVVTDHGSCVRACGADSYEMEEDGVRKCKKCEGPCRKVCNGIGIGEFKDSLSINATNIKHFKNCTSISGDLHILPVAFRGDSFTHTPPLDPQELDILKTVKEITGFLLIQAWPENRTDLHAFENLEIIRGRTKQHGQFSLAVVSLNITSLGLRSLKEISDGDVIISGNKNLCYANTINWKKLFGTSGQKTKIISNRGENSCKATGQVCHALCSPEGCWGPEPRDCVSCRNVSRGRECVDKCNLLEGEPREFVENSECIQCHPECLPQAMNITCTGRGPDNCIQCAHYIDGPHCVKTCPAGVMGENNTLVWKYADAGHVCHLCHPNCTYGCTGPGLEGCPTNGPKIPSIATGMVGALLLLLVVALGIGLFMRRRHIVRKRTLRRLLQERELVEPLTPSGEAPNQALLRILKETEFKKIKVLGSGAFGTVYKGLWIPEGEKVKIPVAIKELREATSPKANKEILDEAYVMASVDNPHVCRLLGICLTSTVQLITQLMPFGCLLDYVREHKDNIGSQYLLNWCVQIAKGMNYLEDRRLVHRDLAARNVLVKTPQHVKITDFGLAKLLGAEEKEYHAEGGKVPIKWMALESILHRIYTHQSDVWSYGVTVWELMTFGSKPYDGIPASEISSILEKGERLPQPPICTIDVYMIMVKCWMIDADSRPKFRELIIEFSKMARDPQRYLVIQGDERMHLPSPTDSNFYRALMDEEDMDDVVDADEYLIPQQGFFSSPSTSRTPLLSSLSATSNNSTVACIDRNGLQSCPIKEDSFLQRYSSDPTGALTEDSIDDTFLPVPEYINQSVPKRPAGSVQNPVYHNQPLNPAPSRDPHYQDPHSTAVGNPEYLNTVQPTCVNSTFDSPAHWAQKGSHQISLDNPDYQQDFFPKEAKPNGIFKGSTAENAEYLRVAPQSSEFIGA
T2 sequence (P00533 whole entry T790M/L858R): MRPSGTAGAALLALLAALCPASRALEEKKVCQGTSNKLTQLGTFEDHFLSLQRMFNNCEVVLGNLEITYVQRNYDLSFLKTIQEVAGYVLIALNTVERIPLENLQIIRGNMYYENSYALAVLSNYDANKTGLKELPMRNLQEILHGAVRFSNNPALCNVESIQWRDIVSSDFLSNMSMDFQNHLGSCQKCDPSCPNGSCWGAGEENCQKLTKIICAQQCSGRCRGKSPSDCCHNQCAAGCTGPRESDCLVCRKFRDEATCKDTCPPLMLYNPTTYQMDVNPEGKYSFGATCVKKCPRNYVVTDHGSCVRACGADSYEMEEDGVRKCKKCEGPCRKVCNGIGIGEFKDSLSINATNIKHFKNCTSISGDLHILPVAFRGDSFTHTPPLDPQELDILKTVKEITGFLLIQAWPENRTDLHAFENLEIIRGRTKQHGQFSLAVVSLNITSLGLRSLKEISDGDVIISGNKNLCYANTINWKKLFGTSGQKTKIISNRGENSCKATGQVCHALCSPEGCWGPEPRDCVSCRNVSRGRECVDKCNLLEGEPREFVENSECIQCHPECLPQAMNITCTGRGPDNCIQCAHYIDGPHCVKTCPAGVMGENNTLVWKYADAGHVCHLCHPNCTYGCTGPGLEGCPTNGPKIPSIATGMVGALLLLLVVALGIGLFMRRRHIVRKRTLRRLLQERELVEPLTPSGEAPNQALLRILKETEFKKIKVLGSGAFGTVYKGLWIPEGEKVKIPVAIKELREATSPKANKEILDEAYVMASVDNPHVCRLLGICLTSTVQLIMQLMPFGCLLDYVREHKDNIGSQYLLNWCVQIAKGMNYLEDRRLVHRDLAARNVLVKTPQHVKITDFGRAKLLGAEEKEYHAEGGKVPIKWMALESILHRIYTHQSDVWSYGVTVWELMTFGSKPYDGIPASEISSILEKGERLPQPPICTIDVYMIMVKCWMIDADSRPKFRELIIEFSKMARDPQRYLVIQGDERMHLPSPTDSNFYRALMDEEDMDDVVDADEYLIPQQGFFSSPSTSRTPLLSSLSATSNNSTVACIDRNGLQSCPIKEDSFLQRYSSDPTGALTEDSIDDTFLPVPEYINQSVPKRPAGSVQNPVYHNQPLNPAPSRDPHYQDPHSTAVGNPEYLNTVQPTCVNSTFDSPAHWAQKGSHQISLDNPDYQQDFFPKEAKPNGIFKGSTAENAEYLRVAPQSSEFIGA

Row | Compound | IC50 ([1]; human EGFR native sequence) | IC50 (EGFR L858R; EGFR L858R) | IC50 (EGFR L858R/T790M; [5]) | GI50 [2] | GI50 [3] | IC50 [1, 6] | IC50 (EGFR L858R; [6]) | IC50 (EGFR L858R/T790M; [6]) | IC50 ([4]; BAF3 PARENTAL cells (control)) | IC50 ([4]; BAF3 parental cells)
1 | C=C(CN1CCS(=O)(=O)CC1)C(=O)Nc1ccc(OC)c(Nc2ncc(Cl)c(Nc3ccccc3P(C)(C)=O)n2)c1 [Example 46, N-(3-((5-chloro-4-((2-(dimethylphosphoryl)phenyl)amino)pyrimidin-2-yl)amino)-4-methoxyphenyl)-2-((1,1-dioxidothiomorpholino)methyl)acrylamide] | ≥ 250 nM | 50 to 100 nM | < 50 nM | ≥ 250 nM | ≥ 250 nM | – | – | – | ≥ 250 nM | –
2 | C=C(C(=O)Nc1ccc(OC)c(Nc2ncc(Cl)c(Nc3ccccc3P(C)(C)=O)n2)c1)C(F)(F)F [Example 82, N-(3-((5-chloro-4-((2-(dimethylphosphoryl)phenyl)amino)pyrimidin-2-yl)amino)-4-methoxyphenyl)-2-(trifluoromethyl)acrylamide] | < 50 nM | < 50 nM | < 50 nM | ≥ 250 nM | ≥ 250 nM | – | – | – | ≥ 250 nM | –
3 | C=CC(=O)Nc1cc(Nc2ncc(Cl)c(Nc3ccccc3P(C)(C)=O)n2)c(OC)cc1O[C@@H]1CCCN(C)C1 (single isomer, unassigned) [Example 14] | < 50 nM | < 50 nM | < 50 nM | < 50 nM | < 50 nM | – | – | – | ≥ 250 nM | –
4 | COc1ccc(NC(=O)C#Cc2ccccc2)cc1Nc1ncc(Cl)c(Nc2ccccc2P(C)(C)=O)n1 [Example 93, N-(3-((5-chloro-4-((2-(dimethylphosphoryl)phenyl)amino)pyrimidin-2-yl)amino)-4-methoxyphenyl)-3-phenylpropiolamide] | ≥ 250 nM | < 50 nM | < 50 nM | < 50 nM | < 50 nM | – | – | – | ≥ 250 nM | –
5 | C=C(CN1CCC(O)C1)C(=O)Nc1ccc(OC)c(Nc2ncc(Cl)c(Nc3ccccc3P(C)(C)=O)n2)c1 (stereo not drawn) [Example 53, N-(3-((5-chloro-4-((2-(dimethylphosphoryl)phenyl)amino)pyrimidin-2-yl)amino)-4-methoxyphenyl)-2-((3-hydroxypyrrolidin-1-yl)methyl)acrylamide] | < 50 nM | < 50 nM | < 50 nM | < 50 nM | < 50 nM | – | – | – | ≥ 250 nM | –
6 | C=CC(=O)Nc1cc(Nc2ncc(Cl)c(Nc3ccccc3P(C)(C)=O)n2)c(OC)cc1N1CC[C@H](N(C)C)C1 (stereo in doubt) [Example 29, rac-(R)-N-(5-((5-chloro-4-((2-(dimethylphosphoryl)phenyl)amino)pyrimidin-2-yl)amino)-2-(3-(dimethylamino)pyrrolidin-1-yl)-4-methoxyphenyl)acrylamide] | < 50 nM | < 50 nM | < 50 nM | < 50 nM | < 50 nM | – | – | – | ≥ 250 nM | –
7 | C=CC(=O)Nc1cc(Nc2ncc(Cl)c(Nc3ccccc3P(C)(C)=O)n2)c(OC)cc1OCCN1CCCC1 [Example 1, N-(5-((5-chloro-4-((2-(dimethylphosphoryl)phenyl)amino)pyrimidin-2-yl)amino)-4-methoxy-2-(2-(pyrrolidin-1-yl)ethoxy)phenyl)acrylamide] | < 50 nM | < 50 nM | < 50 nM | < 50 nM | < 50 nM | – | – | – | ≥ 250 nM | –

Second part, led by results:

Row | IC50 ([1]; human EGFR native sequence) | IC50 (EGFR L858R; EGFR L858R) | IC50 (EGFR L858R/T790M; [5]) | GI50 [2] | GI50 [3] | IC50 [1, 6] | IC50 (EGFR L858R; [6]) | IC50 (EGFR L858R/T790M; [6]) | Compound | IC50 ([4]; BAF3 PARENTAL cells (control)) | IC50 ([4]; BAF3 parental cells)
8 | – | – | – | < 50 nM | < 50 nM | < 50 nM | < 50 nM | < 50 nM | COc1ccc(NC(=O)CCl)cc1Nc1ncc(Cl)c(Nc2ccccc2P(C)(C)=O)n1 [Example 137, 2-chloro-N-(3-((5-chloro-4-((2-(dimethylphosphoryl)phenyl)amino)pyrimidin-2-yl)amino)-4-methoxyphenyl)acetamide] | – | ≥ 250 nM
9 | – | – | – | ≥ 250 nM | ≥ 250 nM | 50 to 100 nM | < 50 nM | 101 to 250 nM | C=CC(=O)Nc1ccc(OC)c(Nc2cc(Nc3ncccc3P(C)(C)=O)ncn2)c1 [Example 163, N-(3-((6-((3-(dimethylphosphoryl)pyridin-2-yl)amino)pyrimidin-4-yl)amino)-4-methoxyphenyl)acrylamide] | – | ≥ 250 nM
10 | – | – | – | < 50 nM | < 50 nM | < 50 nM | < 50 nM | < 50 nM | COc1cc(F)c(NC(=O)CCl)cc1Nc1ncc(Cl)c(Nc2ccccc2P(C)(C)=O)n1 [Example 149, 2-chloro-N-(5-((5-chloro-4-((2-(dimethylphosphoryl)phenyl)amino)pyrimidin-2-yl)amino)-2-fluoro-4-methoxyphenyl)acetamide] | – | ≥ 250 nM
11 | – | – | – | < 50 nM | < 50 nM | < 50 nM | < 50 nM | < 50 nM | C=CC(=O)Nc1ccc(Cl)c(Nc2ncc(Cl)c(Nc3ccccc3P(C)(C)=O)n2)c1 [Example 136, N-(4-chloro-3-((5-chloro-4-((2-(dimethylphosphoryl)phenyl)amino)pyrimidin-2-yl)amino)phenyl)acrylamide] | – | ≥ 250 nM
12 | – | – | – | < 50 nM | < 50 nM | < 50 nM | < 50 nM | < 50 nM | C=CC(=O)Nc1ccc(OC)c(Nc2ncc(Cl)c(Nc3ccc(OCCN4CCCCC4)cc3P(C)(C)=O)n2)c1 [Example 108, N-(3-((5-chloro-4-((2-(dimethylphosphoryl)-4-(2-(piperidin-1-yl)ethoxy)phenyl)amino)pyrimidin-2-yl)amino)-4-methoxyphenyl)acrylamide] | – | ≥ 250 nM
13 | – | – | – | < 50 nM | < 50 nM | < 50 nM | < 50 nM | < 50 nM | C=CC(=O)Nc1ccc(OC)c(Nc2ncc(Cl)c(Nc3ccc(OCCCN(C)C)cc3P(C)(C)=O)n2)c1 [Example 126, N-(3-((5-chloro-4-((4-(3-(dimethylamino)propoxy)-2-(dimethylphosphoryl)phenyl)amino)pyrimidin-2-yl)amino)-4-methoxyphenyl)acrylamide] | – | ≥ 250 nM
14 | – | – | – | < 50 nM | < 50 nM | < 50 nM | < 50 nM | < 50 nM | C=CC(=O)Nc1cc(Nc2ncc(Cl)c(Nc3ccccc3P(C)(C)=O)n2)c(OC)cc1C#CCN(C)C(C)C [Example 166, N-(5-((5-chloro-4-((2-(dimethylphosphoryl)phenyl)amino)pyrimidin-2-yl)amino)-2-(3-(isopropyl(methyl)amino)prop-1-yn-1-yl)-4-methoxyphenyl)acrylamide] | – | ≥ 250 nM
15 | – | – | – | < 50 nM | 101 to 250 nM | ≥ 250 nM | < 50 nM | < 50 nM | CNC(=O)/C=C\C(=O)Nc1ccc(OC)c(Nc2ncc(Cl)c(Nc3ccccc3P(C)(C)=O)n2)c1 [Example 110, N1-(3-((5-chloro-4-((2-(dimethylphosphoryl)phenyl)amino)pyrimidin-2-yl)amino)-4-methoxyphenyl)-N4-methylmaleamide] | – | ≥ 250 nM
16 | – | – | – | < 50 nM | 50 to 100 nM | < 50 nM | < 50 nM | < 50 nM | CC#CC(=O)Nc1cc(Nc2ncc(Cl)c(Nc3ccccc3P(C)(C)=O)n2)c(OC)cc1N1CCC(N(C)C)C1 (stereo not drawn) [Example 112, N-(5-((5-chloro-4-((2-(dimethylphosphoryl)phenyl)amino)pyrimidin-2-yl)amino)-2-(3-(dimethylamino)pyrrolidin-1-yl)-4-methoxyphenyl)but-2-ynamide] | – | ≥ 250 nM
17 | – | – | – | ≥ 250 nM | ≥ 250 nM | ≥ 250 nM | ≥ 250 nM | ≥ 250 nM | COc1ccc(NS(=O)(=O)CCl)cc1Nc1ncc(Cl)c(Nc2ccccc2P(C)(C)=O)n1 [Example 150, 1-chloro-N-(3-((5-chloro-4-((2-(dimethylphosphoryl)phenyl)amino)pyrimidin-2-yl)amino)-4-methoxyphenyl)methanesulfonamide] | – | ≥ 250 nM
18 | < 50 nM | < 50 nM | < 50 nM | < 50 nM | < 50 nM | – | – | – | COc1cc(N2CCOCC2)c(NC(=O)C#CCCN2CCCCC2)cc1Nc1ncc(Cl)c(Nc2ccccc2P(C)(C)=O)n1 [Example 101, N-(5-((5-chloro-4-((2-(dimethylphosphoryl)phenyl)amino)pyrimidin-2-yl)amino)-4-methoxy-2-morpholinophenyl)-5-(piperidin-1-yl)pent-2-ynamide] | ≥ 250 nM | –

Source: patent US9834571B2, “Compounds for inhibiting cell proliferation in EGFR-driven cancers” (ARIAD Pharmaceuticals, Inc., priority 2012, dated 2017)
